Assay results taken from US20220244279A1, “ASSAYS AND METHODS FOR SCREENING FOR CARDIOVASCULAR DISEASE USING LDL SUBCLASSES AND ENDOTHELIAL NITRIC OXIDE/PEROXYNITRITE BALANCE” (Ohio University, priority 2019, published 2022).
“Also recorded” adds a separate entry of the source.

Tested on: human umbilical vein endothelial cells (HUVECs)
Assay: Effect of eNOS pathway modulators on LDL-stimulated NO and ONOO− release
Assay type: cell-based
Conditions: for ONOO− production after pre-treatment vs control / NO production after pre-treatment vs control: 30 min pre-treatment, then LDL subclass A, B or I 800 μg/mL; for [NO]/[ONOO−] ratio with subclass I: pre-treatment, then subclass I 800 μg/mL; for effect on ratio of [NO]/[ONOO−]: modulators of L-arginine/NO pathway
Description: Concurrent measurements of NO and ONOO^− were performed with electrochemical nanosensors (diameter: 200-300 nm). The designs of nanosensors are based on chemically modified carbon-fiber technology. Each of those sensors was made by depositing a sensing material on the tip of the carbon fiber. A conductive film of polymeric nickel (II) tetrakis (3-methoxy-4hydroxy-phenyl) porphyrinic was used for the NO sensor and a polymeric film of Mn (III)-paracyclophanyl-porphyrin was used for the ONOO^− sensor. NO and ONOO^− release from its basal level were measured by using amperometry with time (detection limit of 1 nmol/L and resolution time <50 ms). Each sensor was calibrated by using linear calibration curves from 50 nmol/L to 1000 nmol/L and/or standard addition methods before and after measurements with aliquots of NO or ONOO^− standard solutions, respectively.
Endothelial cells were seeded to 24 well plates and cultured in complete medium until confluent monolayer formed. Then the study was carried out as follows:
A control group was incubated in EBM only. After incubation, endothelial cells were stimulated with direct injection of subclasses A, B and I (800 μg/mL), and the release of NO/ONOO^− was measured with nanosensors.

SMILES | ONOO− production after pre-treatment vs control | [NO]/[ONOO−] ratio with subclass I | NO production after pre-treatment vs control | effect on ratio of [NO]/[ONOO−] | decrease of ONOO− concentration (VAS2870 10 μmol/L, LDL 800 μg/mL)
COC(=O)[C@@H](N)CCCNC(=N)N[N+](=O)[O-] [L-NAME, L-N^G-arginine methyl ester] | diminished | lower than one | – | – | –
N=C(N)NCCC[C@H](N)C(=O)O [L-arginine] | diminished; also recorded: decrease ONOO^− generation | greater than one | increase NO production | favorably increasing the ratio of [NO]/[ONOO^−] | –
c1ccc(Cn2nnc3c(Sc4nc5ccccc5o4)ncnc32)cc1 [VAS2870] | diminished | – | – | – | 20-27 % of control group
C[C@H](O)C(=O)C1=Nc2c(nc(N)[nH]c2=O)NC1 [sepiapterin] | diminished; also recorded: lower level of ONOO^− | greater than one | higher level of NO | favorably increasing the ratio of [NO]/[ONOO^−] | –
